Literature values, collected in patent publication US20140056804A1, “PHARMACEUTICAL COMPOUND WHICH INCLUDES CLINOPTILOLITE” (priority 2008, published 2014).

Conditions: NSAIDs such as naproxen

COc1ccc2cc([C@H](C)C(=O)O)ccc2c1 [naproxen]
patients with non-symptomatic mucosal breaks: ~80%
